{"source": "patent US20140024663A1", "about": "“ATB(0,+) AMINO ACID TRANSPORTER AS A DRUG TARGET FOR TREATMENT OF ESTROGEN RECEPTOR-POSITIVE BREAST CANCER” (GEORGIA HEALTH SCIENCES UNIVERSITY RESEARCH INSTITUTE, INC., priority 2012, published 2014)", "type_in_all_cases": "cell-based, human", "key": {"MB231 cells [1]": {"tested_on": "MB231 cells", "assay": "Cell death by propidium iodide staining and FACS cell cycle analysis", "conditions": "MB231, α-MT 2.5 mM and 3-MA 10 mM, either alone or together, 48 h", "procedure": "(§1) FIGS. 9A to 9D. Influence of α-MT on mTOR activity In FIG. 9A, MCF7 and MB231 cells were treated without or with α-MT (2.5 mM) for 24 h, 48 h, or 72 h, and then the cell lysates were used for western blot. Influence of α-MT with or without 3-MA on cell death. In FIG. 9B, MCF7, MB231, and MCF10A cells were treated for 48 h without or with α-MT (2.5 mM), 3-MA (10 mM), or α-MT (2.5 mM) plus 3-MA (10 mM), and then analyzed for cell death by propidium iodide (PI) staining and FACS-based cell cycle analysis. In FIG. 9C, MCF7 cells were treated for 48 h without or with α-MT (2.5 mM), 3-MA (10 mM), or α-MT (2.5 mM) plus 3-MA (10 mM), and then analyzed for apoptotic cell death by annexin V labeling. In FIG. 9D, MCF7 and MB231 cells were treated without or with 2.5 mM α-MT for 24 h, 48 h, or 72 h. Cell lysates were then used for western blot analysis of lamin A degradation product using an antibody that recognizes specifically the proteolytic cleavage product. β-Actin was used as an internal control.\n(§2) Apoptosis assay. Fluorescence-activated cell sorting (FACS) was used to monitor cell death. MCF7 cells were treated with or without α-MT, 3-MA, or α-MT plus 3-MA. Control and treated cells were then fixed in 50% ethanol, treated with 0.1% sodium citrate, 1 mg/ml RNase A, and 50 μg/ml propidium iodide, and then subjected to FACS analysis (FACS Caliber, Becton Dickinson). FITC-labeled annexin V was used to differentiate apoptotic cell death from necrotic cell death."}, "MCF10A cells": {"tested_on": "MCF10A cells", "assay": "Cell death by propidium iodide staining and FACS cell cycle analysis", "conditions": "α-MT 2.5 mM and 3-MA 10 mM, either alone or together, 48 h", "procedure": "as §1, §2"}, "mTOR in MCF7 cells": {"tested_on": "mTOR in MCF7 cells", "assay": "mTOR activity by western blot (phosphorylation of S6 and S6 kinase)", "conditions": "MCF7, α-MT 2.5 mM, 24, 48 or 72 h", "procedure": "as §1"}, "[2]": {"tested_on": "mTOR in SLC6A14-negative cells (MB231)", "assay": "mTOR activity by western blot (phosphorylation of S6 and S6 kinase)", "conditions": "α-MT 2.5 mM, 24, 48 or 72 h", "procedure": "as §1"}, "MB231 cells [3]": {"tested_on": "MB231 cells", "assay": "Western blot of lamin A degradation product (caspase-6 substrate)", "conditions": "SLC6A14-negative MB231 cells, α-MT 2.5 mM, identical conditions", "procedure": "as §1"}, "MCF7 cells": {"tested_on": "MCF7 cells", "assay": "Western blot of lamin A degradation product (caspase-6 substrate)", "conditions": "MCF7, α-MT 2.5 mM, 24, 48 or 72 h", "procedure": "as §1"}}, "data": [{"smiles": "CC(N)(Cc1c[nH]c2ccccc12)C(=O)O", "note": "(racemic) [α-MT, α-methyl-DL-tryptophan]", "values": [{"measurement": "effect on cell death", "setting": "MB231 cells [1]", "result": "very little, if any, effect"}, {"measurement": "effect on cell death", "setting": "MCF10A cells", "result": "very little, if any, effect"}, {"measurement": "mTOR inhibition: phosphorylation of S6 and S6 kinase", "setting": "mTOR in MCF7 cells", "result": "decreased phosphorylation"}, {"measurement": "mTOR activity", "setting": "[2]", "result": "not affected"}, {"measurement": "apoptosis (Lamin A cleavage)", "setting": "MB231 cells [3]", "result": "no evidence of apoptosis"}, {"measurement": "apoptotic cell death shown by Lamin A cleavage", "setting": "MCF7 cells", "result": "cleavage of Lamin A"}]}]}
